Tested on: β-catenin transcriptional activity (pTOPFLASH reporter) in 293T cells
Test: TOPFLASH β-catenin luciferase reporter assay in transfected 293T cells
Type: cell-based, human
Conditions: NAM added eight hours after transfection, harvested 24 h post-transfection, normalized to Renilla luciferase, FIG. 4F

## NC(=O)c1cccnc1 [nicotinamide]
  luciferase reporter activity (pTOPFLASH β-catenin reporter): increased luciferase reporter activity
